What was measured:
Format in all cases: in vivo, human
[1] = tested on: patients with gout and a history of major cardiovascular diseases; experiment: Clinical trial: proportion of patients reaching serum uric acid concentration targets; settings: febuxostat group vs allopurinol group
Procedure: A multicenter, randomized, double-blind non-inferiority trial was performed. The details of the clinical trial design have been published previously. An independent data and safety monitoring committee with access to unblinded data monitored the clinical trial. The statistical analysis for the data and the safety monitoring committee was performed by an independent statistical group (WebbWrites). […] The patients were regarded as having a history of major cardiovascular diseases, if they had myocardial infarction, hospitalization for unstable angina, stroke, hospitalization for transient ischemic attack, peripheral vascular disease, or diabetes mellitus symptoms. All participants provided a prior informed consent form. The dose of allopurinol was modified according to a kidney function. […] The dose of febuxostat was not modified according to the kidney function. The patients who were randomly assigned to receive febuxostat initially received 40 mg once a daily, and continued to receive the same dosage if the serum uric acid concentration was less than 6.0 mg per deciliter after 2 weeks of the treatment. […] During the period, the administration of a double-blind and double-dummy trial medications was guided by an interactive voice-response system which was a procedure to prevent unblinding for the patients whose dose was not adjusted. After completing dose adjustment, the urate level was concealed from the investigators, and the treatment was managed throughout the trial using the interactive voice-response system. […] The patients with reduced kidney function or, the patients aged 65 years or older at randomization were visited at 9 and 15 months for monitoring the serum chemical profile. If the patient agreed to be monitored, but would not return for study visit, telephone contact was made, but such method was not preferred or recommended.

[2] = tested on: patients with gout and a history of major cardiovascular diseases; experiment: Clinical trial: rate of gout flare; settings: overall
Procedure: (§1) A multicenter, randomized, double-blind non-inferiority trial was performed. The details of the clinical trial design have been published previously. An independent data and safety monitoring committee with access to unblinded data monitored the clinical trial. The statistical analysis for the data and the safety monitoring committee was performed by an independent statistical group (WebbWrites).
(§2) The patients were regarded as having a history of major cardiovascular diseases, if they had myocardial infarction, hospitalization for unstable angina, stroke, hospitalization for transient ischemic attack, peripheral vascular disease, or diabetes mellitus symptoms. All participants provided a prior informed consent form.
All patients received prophylaxis for the first 6 months of the randomly assigned treatment.

[3] = tested on: patients with gout and a history of major cardiovascular diseases; experiment: Clinical trial analysis: risk of major cardiovascular events by serum uric acid concentration (<6 vs >=6) per patient group; settings: for increase in risk of occurrence of major cardiovascular events (hazard ratio): serum uric acid maintained at or above 6 vs below 6
Procedure: as §1, §2
The patients were randomly assigned so that they received febuxostat or allopurinol administered once a day in a double-blind manner. The randomization was stratified according to the estimated creatinine clearance at baseline (patient group having an estimated creatinine clearance ≥60 ml per minute vs patient group having an estimated creatinine clearance ≥30 and <60 ml per minute).
The dose of allopurinol was modified according to a kidney function. The patients with the estimated creatinine clearance 60 ml or more per minute i) initially received allopurinol at a dose of 300 mg once a day, and the dose was increased in 100 mg increments monthly until the patient had the serum uric acid concentration of less than 6.0 mg per deciliter or the dosage of allopurinol was 600 mg once a day. The patient having the estimated creatinine clearance of 30 ml or more and less than 60 ml per minute initially received 200 mg of allopurinol, and then the dose was increased in 100 mg increments until the patient either had the serum uric acid concentration of less than 6.0 mg per deciliter or was receiving the allopurinol dose of 400 mg once daily.
The dose of febuxostat was not modified according to the kidney function. The patients who were randomly assigned to receive febuxostat initially received 40 mg once a daily, and continued to receive the same dosage if the serum uric acid concentration was less than 6.0 mg per deciliter after 2 weeks of the treatment. If the serum uric acid concentration was higher than 6.0 mg per deciliter at 2nd week visit, the dose of febuxostat was increased to 80 mg once daily for the remainder of the trial.

SMILES	proportion of patients with maintenance of serum uric acid concentration at less than 6.0 mg per deciliter ([1]; after 2nd week, at most times, difference not large)	proportion of patients with serum uric acid concentration of less than 6.0 mg per deciliter ([1]; at the 2nd week)	proportion of patients with serum uric acid concentration of less than 5.0 mg per deciliter ([1]; entire trial)	rate of gout flare [2]	effect on cardiovascular disease when serum uric acid concentration is maintained below 6 ([3]; febuxostat: aged 65 or older, glucose 126 mg/dl or more, LDL-cholesterol 100 mg/dl or less, DBP 80 or lower, or stroke or peripheral vascular disease history)	effect on cardiovascular disease when serum uric acid concentration is maintained below 6 ([3]; allopurinol: aged 65 years or older or BMI 30 kg/m^2 or less)	increase in risk of occurrence of major cardiovascular events (hazard ratio) ([3]; patient group aged 65 years or older)	increase in risk of occurrence of major cardiovascular events (hazard ratio) ([3]; patient group with BMI of 30 kg/m^2 or less)
Cc1nc(-c2ccc(OCC(C)C)c(C#N)c2)sc1C(=O)O [febuxostat]	higher proportion	higher	larger proportion	0.68 per patient-year	prevented or treated	–	–	–
O=c1ncnc2[nH][nH]cc1-2 [allopurinol]	–	–	–	0.63 per patient-year	–	effectively prevented or treated	about 1.68 times	about 1.78 times

From patent US20250114363A1, “PHARMACEUTICAL COMPOSITION COMPRISING ALLOPURINOL, FEBUXOSTAT, OR A PHARMACEUTICALLY ACCEPTABLE SALT THEREOF FOR PREVENTING OR TREATING CARDIOVASCULAR DISEASE OF SUBJECT HAVING HIGH SERUM URIC ACID LEVEL” (Indream Healthcare Inc., priority 2022, published 2025)
